From patent publication US20180340012A1, “METHODS AND CO[…] TO IMPROVING PROPERTIES OF PHARMACOLOGICAL AGENTS TARGETING NERVOUS SYSTEM” (University of Utah Research Foundation, priority 2006, published 2018)
“Also recorded” adds a separate entry of the source.

Assays:
[1] = system: tonic-extension (maximal electroshock) seizures; test: Maximal electroshock seizure test; format: in vivo, mice; conditions: 4 mg/kg i.p., tested one hour later
Excerpt: Abolition of the hindleg tonic extensor component of the seizure is used as the endpoint.

[2] = system: formalin-induced paw licking; test: Mouse formalin test; format: in vivo
Experimental: An injection of 0.5% formalin is made into the planter region of a mouse right hind paw. This elicits a distinct biphasic behavioral profile characterized by the mouse licking the affected paw. Immediately following the injection the mouse licks the paw for about 10 minutes. This is phase 1 (acute) and is followed by a brief latent period where there is little behavioral activity. A more prolonged period of about 20 to 30 minutes of paw licking ensues which constitutes phase 2 (inflammatory).
Prior to the administration of the active peptide, drug or vehicle each mouse undergoes a 15-minute conditioning period in one of several 6″ tall plexiglass observation tubes (4″ diameter) that are placed in front of a mirror. […] One hour after treatment, formalin was injected sub-dermally (20 μl; 27 gauge needle) into the plantar surface of the right hind foot. The bevel of the needle is placed facing down toward the skin surface. Following the injection of the formalin each animal is observed for first 2 minutes of each 5 minute epoch for a total of 45 minutes. The cumulative length of licking for each 2 minute time period was measured. An animal receiving the requisite volume of vehicle was alternated with each mouse given GAL-BBB2, Gal 1-16, or gabapentin. Animals were euthanized following the conclusion of the experiment.
Area under the curve (AUC) determination was made using the GraphPad Prism Version 3.03. Total AUC is calculated for both the test and control groups for both the acute and inflammatory phases. The AUC for individual animals for each phase is also calculated and converted to percentage of total AUC of control. The average percentages and SEM for both the drug treated and control were calculated and tested for significant difference.

6 Hz limbic seizures = test: 6 Hz limbic (psychomotor) seizure test; format: in vivo, CF-1 mice
Excerpt: Mice not displaying limbic seizures were considered protected.

Sar-Trp-Thr-Leu-Asn-Ser-Ala-Gly-Tyr-Leu-Leu-Gly-Pro-Lys-Lys-(Lys-palm)-Lys-NH2 [NAX 5055]
activity in maximal electroshock seizure test [1]: completely inactive | effect of 5 mg/kg compared with 10 mg/kg gabapentin ([2]; 5 mg/kg i.p.): equivalent | paw licking, acute and inflammatory phase ([2]; 0.52-5 mg/kg i.p., 60 min before formalin): dose-dependent reduction | Active at (flat phase II) ([2]; mouse formalin assay of inflammatory pain): 5 mg/kg (“flat phase II”) | activity in pharmaco-resistant seizure model (6 Hz limbic seizures; 4 mg/kg): active | % Protection at 1 hour (6 Hz limbic seizures; 4 mg/kg, i.p., 1 h, model not printed at tables, ED50s of same analogs called 6 Hz model): 100% | % Protection at 2 hours (6 Hz limbic seizures; 4 mg/kg, i.p., 2 h): 100% | % Protection at 4 hours (6 Hz limbic seizures; 4 mg/kg, i.p., 4 h): 0% | potency and efficacy compared with native peptide (6 Hz limbic seizures; 6 Hz (32 mA) test): more potent and more efficacious | ED50 in the 6 Hz model (6 Hz limbic seizures; i.p.): 0.8 mg/kg | dose in parentheses in Table 14 (ED50) (6 Hz limbic seizures; i.p., not labelled in table): 0.8 mg/kg | ED50 following i.c.v. administration (6 Hz limbic seizures; intracerebroventricular, 6 Hz (32 mA) test, FIG. 22): 0.07 nmol | anticonvulsant activity following subcutaneous administration (6 Hz limbic seizures; s.c., 32 mA, 6 Hz, 60 min after injection): preserved; also recorded: retained
